Test results from patent publication US20120264735A1 (priority 2009, published 2012).

Biological target: T1, c-Met kinase (recombinant c-Met) (Homo sapiens, UniProt P08581)
T1 construct: 0.27 nM recombinant c-Met
Assay: In vitro kinase assay I (homogeneous time-resolved fluorescence tyrosine kinase assay)
Type: biochemical
In short: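 Biotinylated peptide (0.5 μM) phosphorylated by 0.2 nM recombinant c-Met with 50 μM MgATP, 60 min at room temperature, pH 7.4, 5% DMSO. EDTA stop; HTRF read with Eu-anti-phosphotyrosine antibody and streptavidin-APC. IC50 from 4-parameter logistic fit.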

T1 sequence (P08581 25-1390): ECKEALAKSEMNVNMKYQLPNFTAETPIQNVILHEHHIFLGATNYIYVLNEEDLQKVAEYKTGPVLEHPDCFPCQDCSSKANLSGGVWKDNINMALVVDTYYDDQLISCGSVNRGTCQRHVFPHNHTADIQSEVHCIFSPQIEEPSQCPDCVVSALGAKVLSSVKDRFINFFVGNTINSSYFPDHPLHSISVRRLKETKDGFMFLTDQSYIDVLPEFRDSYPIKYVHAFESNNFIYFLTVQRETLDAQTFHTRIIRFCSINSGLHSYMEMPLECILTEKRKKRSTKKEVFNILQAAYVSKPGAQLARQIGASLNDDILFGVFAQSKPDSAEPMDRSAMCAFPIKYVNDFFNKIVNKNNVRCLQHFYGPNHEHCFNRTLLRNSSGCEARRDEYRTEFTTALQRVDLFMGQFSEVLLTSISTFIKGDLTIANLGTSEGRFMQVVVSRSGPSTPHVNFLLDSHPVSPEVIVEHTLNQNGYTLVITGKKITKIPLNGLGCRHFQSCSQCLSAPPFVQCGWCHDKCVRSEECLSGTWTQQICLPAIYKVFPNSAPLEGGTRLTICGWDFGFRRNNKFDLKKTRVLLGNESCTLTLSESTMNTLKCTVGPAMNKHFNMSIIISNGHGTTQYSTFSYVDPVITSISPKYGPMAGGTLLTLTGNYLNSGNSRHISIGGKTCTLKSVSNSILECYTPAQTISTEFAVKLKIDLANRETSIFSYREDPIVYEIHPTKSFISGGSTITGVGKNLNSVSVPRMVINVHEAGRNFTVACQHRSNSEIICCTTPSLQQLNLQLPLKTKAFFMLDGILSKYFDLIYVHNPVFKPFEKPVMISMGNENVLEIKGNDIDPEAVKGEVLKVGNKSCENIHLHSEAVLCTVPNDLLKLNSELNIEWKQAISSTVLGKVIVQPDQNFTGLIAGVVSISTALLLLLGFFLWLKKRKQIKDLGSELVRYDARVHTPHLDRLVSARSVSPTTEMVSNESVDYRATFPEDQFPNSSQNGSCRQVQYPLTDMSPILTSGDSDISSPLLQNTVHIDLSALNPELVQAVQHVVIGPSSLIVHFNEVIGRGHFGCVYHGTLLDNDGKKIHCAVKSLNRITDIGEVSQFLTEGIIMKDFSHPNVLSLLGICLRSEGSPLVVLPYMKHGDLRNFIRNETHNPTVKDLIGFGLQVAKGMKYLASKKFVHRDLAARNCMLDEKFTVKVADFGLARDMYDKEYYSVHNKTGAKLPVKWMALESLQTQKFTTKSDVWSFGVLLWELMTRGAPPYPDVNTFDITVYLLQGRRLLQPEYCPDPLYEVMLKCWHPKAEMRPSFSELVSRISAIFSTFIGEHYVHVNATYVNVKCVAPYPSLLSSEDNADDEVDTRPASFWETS

| SMILES | IC50 [nM] |
| --- | --- |
| O=C(Nc1cccc(Cc2nn(-c3cc(F)cc(F)c3)ccc2=O)c1)OCCCN1CCS(=O)(=O)CC1 [Example 522, 3-(1,1-dioxidothio-morpholin-4-yl)propyl (3-{[1-(3,5-difluorophenyl)-4-oxo-1,4-dihydropyridazin-3-yl]methyl}phenyl)carbamate] | < 100 |
| Cn1cc(-n2ccc(=O)c(Cc3cccc(-c4noc(CC5CCOCC5)n4)c3)n2)cn1 [Example 746] | 100 to 1000 |
| O=c1ccn(-c2ccccc2)nc1Cc1cccc(-c2ncccn2)c1 [Example 669, 1-Phenyl-3-[3-(pyrimidin-2-yl)benzyl]pyridazin-4(1H)-one] | 100 to 1000 |
| Cc1nc(COc2cnc(-c3cccc(Cc4nn(-c5cnn(C)c5)ccc4=O)c3)nc2)no1 [Example 281, 3-(3-{5-[(5-methyl-1,2,4-oxadiazol-3-yl)methoxy]pyrimidin-2-yl}benzyl)-1-(1-methyl-1H-pyrazol-4-yl)pridazin-4(1H)-one] | < 100 |
| O=c1ccn(-c2ccc(F)c(F)c2)nc1Cc1cccc(-c2ncc(OCC3CCOC3)cn2)c1 (racemic) [Example 328, rac-1-(3,4-difluorophenyl)-3-{3-[5-(tetrahydrofuran-3-ylmethoxy)pyrimidin-2-yl]benzyl}pyridazin-4(1H)-one] | < 100 |
| CCn1cnc(-c2cccc(C(C)c3nn(-c4cnn(C)c4)ccc3=O)c2)n1 (single isomer, unassigned) [Example 680, 3-{(1S or R)-1-[3-(1-ethyl-1H-1,2,4-triazol-3-yl)phenyl]ethyl}-1-(1-methyl-1H-pyrazol-4-yl)pyridazin-4(1H)-one] | 100 to 1000 |
| CCOc1cnc(-c2cccc(Cc3nn(-c4ccc(Cl)c(F)c4)ccc3=O)c2)nc1 [Example 152, 1-(4-chloro-3-fluorophenyl)-3-[3-(5-ethoxypyrimidin-2-yl)benzyl]pyridazin-4(1H)-one] | < 100 |
| Cn1cc(-n2ccc(=O)c(Cc3cccc(-c4noc(CN5CCOCC5)n4)c3)n2)cn1 [Example 743, 1-(1-methyl-1H-pyrazol-4-yl)-3{3-[5-(morpholin-4-ylmethyl)-1,2,4-oxadiazol-3-yl]benzyl}pyridazin-4(1H)-one] | 100 to 1000 |
| CCn1cc(-n2ccc(=O)c(Cc3cccc(-c4ncc(-c5cnn(C)c5)cn4)c3)n2)cn1 [Example 157, 1-(1-ethyl-1H-pyrazol-4-yl)-3-{3-[5-(1-methyl-1H-pyrazol-4-yl)pyrimidin-2-yl]benzyl}pyridazin-4(1H)-one] | < 100 |
| Cn1cc(-n2ccc(=O)c(Cc3cccc(NC(=O)OCC(F)(F)F)c3)n2)cn1 [Example 544, 2,2,2-trifluoroethyl (3-{[1-(1-methyl-1H-pyrazol-4-yl)-4-oxo-1,4-dihydropyridazin-3-yl]methyl}phenyl)carbamate] | < 100 |
| COCC1CCCN(c2cnc(-c3cccc(Cc4nn(-c5cnn(C)c5)ccc4=O)c3)nc2)C1 (racemic) [Example 449, rac-3-(3-{5-[3-(methoxymethyl)piperidin-1-yl]pyrimidin-2-yl}benzyl)-1-(1-methyl-1H-pyrazol-4-yl)pyridazin-4(1H)-one] | < 100 |
| Cn1cc(-n2ccc(=O)c(Cc3cccc(-c4ncc(N5CCCC(F)C5)cn4)c3)n2)cn1 (racemic) [Example 468, rac-3-{3-[5-(3-fluoro-piperidin-1-yl)pyrimidin-2-yl]benzyl)-1-(1-methyl-1H-pyrazol-4-yl)pyridazin-4(1H)-one] | < 100 |
| Cn1cc(-n2ccc(=O)c(Cc3cccc(-c4ncc(OCC(O)CF)cn4)c3)n2)cn1 (racemic) [Example 369, rac-3-{3-[5-(3-fluoro-2-hydroxypropoxy)pyrimidin-2-yl]benzyl}-1-(1-methyl-1H-pyrazol-4-yl)pyridazin-4(1H)-one] | < 100 |
| COCCOc1ccnc(-c2cccc(C(C)c3nn(-c4cnn(C)c4)ccc3=O)c2)n1 (racemic) [Example 679, rac-3-(1-{3-[4-(2-methoxyethoxy)pyrimidin-2-yl]phenyl}ethyl)-1-(1-methyl-1H-pyrazol-4-yl)pyridazin-4(1H)-one] | 100 to 1000 |
| COCc1cnc(-c2cccc(C(C)c3nn(-c4cnn(C)c4)ccc3=O)c2)nc1 (single isomer, unassigned) [Example 219, 3-((1S or R)-1-{3-[5-(methoxymethyl)pyrimidin-2-yl]phenyl}ethyl)-1-(1-methyl-1H-pyrazol-4-yl)pyridazin-4(1H)-one] | 100 to 1000 |
| COCCOc1cnc(-c2cccc(C(C)c3nn(-c4cnn(C)c4)ccc3=O)c2)nc1 (single isomer, unassigned) [Example 222, 3-((1S or R)-1-{3-[5-(2-methoxyethoxy)pyrimidin-2-yl]phenyl}ethyl)-1-(1-methyl-1H-pyrazol-4-yl)pyridazin-4(1H)-one] | 100 to 1000 |
| CCCn1cnc(-c2cccc(Cc3nn(-c4ccc(F)c(F)c4)ccc3=O)c2)n1 [Example 80, 1-(3,4-difluorophenyl)-3-[3-(1-propyl-1H-1,2,4-triazol-3-yl)benzyl]pyridazin-4(1H)-one] | < 100 |
| CC(Oc1cnc(-c2cccc(Cc3nn(-c4cnn(C)c4)ccc3=O)c2)nc1)C(C)(C)O (racemic) [Example 366, rac-3-{3-[5-(2-hydroxy-1,2-dimethylpropoxy)pyrimidin-2-yl]benzyl}-1-(1-methyl-1H-pyrazol-4-yl)pyridazin-4(1H)-one] | < 100 |
| CNC(=O)Nc1cccc(Cc2nn(-c3cnn(C)c3)ccc2=O)c1 [Example 487, 1-Methyl-3-(3-{[1-(1-methyl-1H-pyrazol-4-yl)-4-oxo-1,4-dihydropyridazin-3-yl]methyl}phenyl)urea] | < 100 |
| COC(=O)CCCn1cc(-n2ccc(=O)c(Cc3cccc(NC(=O)OCC(C)C)c3)n2)cn1 [Example 179, methyl 4-{4-[3-(3-{[(2-methylpropoxy)carbonyl]amino}benzyl)-4-oxopyridazin-1(4H)-yl]-1H-pyrazol-1-yl}butanoate] | < 100 |
| CCOc1cnc(-c2cccc(C(C)c3nn(-c4cnn(CC)c4)ccc3=O)c2)nc1 (single isomer, unassigned) [Example 246, 3-{(1R or S)-1-[3-(5-ethoxypyrimidin-2-yl)phenyl]ethyl}-1-(1-ethyl-1H-pyrazol-4-yl)pyridazin-4(1H)-one] | < 100 |
| N#Cc1cccc(-n2ccc(=O)c(Cc3cccc(NC(=O)OCCN4CCS(=O)(=O)CC4)c3)n2)c1 [Example 596, 2-(1,1-dioxidothio-morpholin-4-yl)ethyl (3-{[1-(3-cyanophenyl)-4-oxo-1,4-dihydropyridazin-3-yl]methyl}phenyl)carbamate] | < 100 |
| CCn1cnc(-c2cccc(Cc3nn(-c4cccc(C(N)=O)c4)ccc3=O)c2)n1 [Example 734, 3-{3-[3-(1-Ethyl-1H-1,2,4-triazol-3-yl)benzyl]-4-oxopyridazin-1(4H)-yl}benzamide] | < 100 |

Other lines, results leading:

| IC50 [nM] | SMILES |
| --- | --- |
| < 100 | CCOCCOc1cnc(-c2cccc(Cc3nn(-c4cc(F)c(F)c(F)c4)ccc3=O)c2)nc1 [Example 325, 3-{3-[5-(2-ethoxyethoxy)pyrimidin-2-yl]benzyl}-1-(3,4,5-trifluorophenyl)pyridazin-4(1H)-one] |
| < 100 | COc1cnc(-c2cccc(Cc3nn(-c4cc(F)cc(C#N)c4)ccc3=O)c2)nc1 [Example 128, 3-fluoro-5-{3-[3-(5-methoxypyrimidin-2-yl)benzyl]-4-oxopyridazin-1(4H)-yl}benzonitrile] |
| 100 to 1000 | CCOC(=O)Nc1cccc(C(F)c2nn(-c3ccc(Cl)cc3)ccc2=O)c1 (racemic) [Example 641, rac-Ethyl(3-{[1-(4-chlorophenyl)-4-oxo-1,4-dihydropyridazin-3-yl](fluoro)methyl}phenyl)carbamate] |
| 100 to 1000 | Cn1cc(-n2ccc(=O)c(Cc3cccc(-c4ncn(CCS(C)(=O)=O)n4)c3)n2)cn1 [Example 714, 1-(1-methyl-1H-pyrazol-4-yl)-3-(3-{1-[2-(methylsulfonyl)ethyl]-1H-1,2,4-triazol-3-yl}benzyl)pyridazin-4(1H)-one] |
| 100 to 1000 | CCOc1cnc(-c2cccc(Cc3nn(-c4cnn(CC(=O)N(C)C)c4)ccc3=O)c2)nc1 [Example 662, 2-(4-{3-[3-(5-ethoxypyrimidin-2-yl)benzyl]-4-oxopyridazin-1(4H)-yl}-1H-pyrazol-1-yl)-N,N-dimethylacetamide] |
| < 100 | CNC(=O)c1cnc(-c2cccc(Cc3nn(-c4cnn(C)c4)ccc3=O)c2)nc1 [Example 485, N-methyl-2-(3-{[1-(1-methyl-1H-pyrazol-4-yl)-4-oxo-1,4-dihydro-pyridazin-3-yl]methyl}phenyl)pyrimidine-5-carboxamide] |
| 100 to 1000 | CCOC(=O)Nc1cccc(Cc2nn(-c3cnn(C4CCOCC4)c3)ccc2=O)c1 [Example 91, ethyl [3-({4-oxo-1-[1-(tetrahydro-2H-pyran-4-yl)-1H-pyrazol-4-yl]-1,4-dihydropyridazin-3-yl}methyl)phenyl]carbamate] |
| < 100 | CC(C)COC(=O)Nc1cccc(Cc2nn(-c3cnn(CCCC(=O)N(C)C)c3)ccc2=O)c1 [Example 696, 2-Methylpropyl {3-[(1-{1-[4-(dimethylamino)-4-oxobutyl]-1H-pyrazol-4-yl}-4-oxo-1,4-dihydropyridazin-3-yl)methyl]phenyl}carbamate] |
| < 100 | COCCOC(=O)Nc1cccc(Cc2nn(-c3cnn(C)c3)ccc2=O)c1 [Example 54, 2-methoxyethyl (3-{[1-(1-methyl-1H-pyrazol-4-yl)-4-oxo-1,4-dihydropyridazin-3-yl]methyl}phenyl)carbamate] |
| < 100 | CCn1cc(-n2ccc(=O)c(C(C)c3cccc(-c4ncc(OCc5noc(C)n5)cn4)c3)n2)cn1 (single isomer, unassigned) [Example 302, 1-(1-ethyl-1H-pyrazol-4-yl)-3-[(1R or S)-1-(3-{5-[(5-methyl-1,2,4-oxadiazol-3-yl)methoxy]pyrimidin-2-yl}phenyl)ethyl]pyridazin-4(1H)-one] |
| < 100 | CC(c1cccc(-c2ncc(-c3cnn(C)c3)cn2)c1)c1nn(-c2cnn(C)c2)ccc1=O (single isomer, unassigned) [Example 232, 1-(1-methyl-1H-pyrazol-4-yl)-3-[(1S or R)-1-{3-[5-(1-methyl-1H-pyrazol-4-yl)pyrimidin-2-yl]phenyl}ethyl]pyridazin-4(1H)-one] |
